Source: patent US20060069132A1, “Azolecarboxamide herbicides” (priority 2004, published 2006)

Assays:
[1] = tested on: ducksalad; test: Test B flooded paddy test; format: in vivo, Heteranthera limosa; conditions: 1000 g ai/ha, scale 0 to 100 (0 no effect, 100 complete control)
Procedure, shortened: (§1)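 After treating 2-leaf paddy plants or 2–18 cm postemergence plants (1 to 4 leaves) with formulated chemical, researchers kept them in a greenhouse for 13–15 days. Effects were judged visually versus controls: 0 indicates none, 100 total control.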

[2] = tested on: large crabgrass; test: Test B pre-/postemergence herbicide test; format: in vivo, Digitaria sanguinalis; conditions: for Crabgrass, Large plant response rating: postemergence, scale 0 (no effect) to 100 (complete control)
Procedure, shortened: (§2)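 Greenhouse pot assay with simultaneous preemergence (treated seed) and postemergence (2–18 cm seedlings) applications of surfactant-containing, non-phytotoxic solvent formulations. Response scored visually 13–15 days later on a 0–100 scale, 100 meaning complete control.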

[3] = tested on: smallflower umbrella sedge; test: Test C flooded paddy test; format: in vivo, Cyperus difformis
[4] = tested on: cocklebur; test: Test B pre-/postemergence herbicide test; format: in vivo, Xanthium strumarium; conditions: for Cocklebur plant response rating: postemergence, scale 0 (no effect) to 100 (complete control)
Procedure, shortened: (§3)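 Flooded paddy rice and barnyardgrass were treated at the 2-leaf stage; upland plantings received compound either on sown seed or on 1- to 4-leaf seedlings. All were kept 13–15 days in a greenhouse and scored visually, 0–100, relative to untreated plants.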

[5] = tested on: pigweed; test: Test B pre-/postemergence herbicide test; format: in vivo, Amaranthus retroflexus; conditions: for Pigweed plant response rating: postemergence, scale 0 (no effect) to 100 (complete control)
Procedure, shortened: as §2

[6] = tested on: rice; test: Test C flooded paddy test; format: in vivo, Oryza sativa
Procedure, shortened: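 Postemergence sprays applied to plants 2 to 18 cm tall (1- to 4-leaf stage); paddy species grown to 2-leaf stage under flooding. After 12 to 14 days in greenhouse, visual rating versus untreated controls on 0–100 scale (0 no effect, 100 complete control).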

[7] = tested on: barnyardgrass; test: Test C flooded paddy test; format: in vivo, Echinochloa crus-galli
Procedure, shortened: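 Greenhouse test with a 12–14 day hold after application and visual comparison with controls. Emerged plants were 1- to 4-leaf stage (2–18 cm) when sprayed postemergence, and the paddy barnyardgrass was at 2 leaves under flooded conditions. 100 = complete control.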

[8] = tested on: wheat; test: Test B postemergence herbicide test; format: in vivo, Triticum aestivum; parameters: key to Wheat plant response rating: 0 = no effect, 100 = complete control; conditions: postemergence, visual rating, scale 0 (no effect) to 100 (complete control)
Procedure, shortened: (§4)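 Formulated test chemicals went onto postemergence plants measuring 2 to 18 cm, at one to four leaves. For the paddy assay, species had reached two leaves. Scoring took place 13–15 days later by eye, relative to untreated plants, using 0 for no effect up to 100 for full control.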

[9] = tested on: barnyardgrass; test: Test B pre-/postemergence herbicide test; format: in vivo, Echinochloa crus-galli; conditions: 0 = no effect, 100 = complete control, preemergence
Procedure, shortened: as §3

[10] = tested on: wild oat; test: Test B postemergence herbicide test; format: in vivo, Avena fatua; conditions: postemergence, visual rating, scale 0 (no effect) to 100 (complete control)
Procedure, shortened: as §4

[11] = tested on: giant foxtail; test: Test B pre-/postemergence herbicide test; format: in vivo, Setaria faberi; conditions: for Foxtail, Giant plant response rating: postemergence, scale 0 (no effect) to 100 (complete control)
Procedure, shortened: as §2

[12] = tested on: rice; test: Test B flooded paddy test; format: in vivo, Oryza sativa; conditions: 1000 g ai/ha, scale 0 to 100 (0 no effect, 100 complete control)
Procedure, shortened: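 Greenhouse test; postemergence application to plants at 1–4 leaves (2–18 cm); paddy species at 2 leaves; evaluated visually vs controls at 13–15 days; scale 0–100 (100 = complete control).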

[13] = tested on: Surinam grass; test: Test B pre-/postemergence herbicide test; format: in vivo, Urochloa decumbens; conditions: for Surinam Grass plant response rating: postemergence, scale 0 (no effect) to 100 (complete control)
Procedure, shortened: as §2

[14] = tested on: velvetleaf; test: Test B pre-/postemergence herbicide test; format: in vivo, Abutilon theophrasti; conditions: for Velvetleaf plant response rating: postemergence, scale 0 (no effect) to 100 (complete control)
Procedure, shortened: as §2

[15] = tested on: small flower umbrella sedge; test: Test B flooded paddy test; format: in vivo, Cyperus difformis; conditions: 1000 g ai/ha, scale 0 to 100 (0 no effect, 100 complete control)
Procedure, shortened: as §1

[16] = tested on: ducksalad; test: Test C flooded paddy test; format: in vivo, Heteranthera limosa
[17] = tested on: corn; test: Test B pre-/postemergence herbicide test; format: in vivo, Zea mays; conditions: for Corn plant response rating: postemergence, scale 0 (no effect) to 100 (complete control)
Procedure, shortened: as §2

[18] = tested on: morningglory; test: Test B pre-/postemergence herbicide test; format: in vivo, Ipomoea coccinea
Procedure, shortened: as §3

[19] = tested on: rice; test: Test B pre-/postemergence herbicide test; format: in vivo, Oryza sativa; conditions: 0 = no effect, 100 = complete control, preemergence
Procedure, shortened: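 Species tested were Echinochloa crus-galli, Ipomoea coccinea, Xanthium strumarium and Oryza sativa, treated both before emergence and at the 1- to 4-leaf stage; rice and barnyardgrass were also tested under flooding at 2 leaves. Greenhouse incubation lasted 13–15 days before visual 0–100 scoring.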

[20] = tested on: lambsquarters; test: Test B pre-/postemergence herbicide test; format: in vivo, Chenopodium album; conditions: for Lambsquarters plant response rating: postemergence, scale 0 (no effect) to 100 (complete control)
Procedure, shortened: as §2

[21] = tested on: blackgrass; test: Test B postemergence herbicide test; format: in vivo, Alopecurus myosuroides; conditions: postemergence, visual rating, scale 0 (no effect) to 100 (complete control)
Procedure, shortened: as §1

[22] = tested on: barnyardgrass; test: Test B flooded paddy test; format: in vivo, Echinochloa crus-galli; conditions: 1000 g ai/ha, scale 0 to 100 (0 no effect, 100 complete control)
Procedure, shortened: as §1

[23] = 125 g ai/ha, 0 = no effect, 100 = complete control, preemergence
[24] = 500 g ai/ha, visual rating, 0 = no effect, 100 = complete control, preemergence
[25] = 62 g ai/ha, scale 0 to 100 (0 no effect, 100 complete control)
[26] = 125 g ai/ha, scale 0 to 100 (0 no effect, 100 complete control)
[27] = 250 g ai/ha, scale of 0 to 100, 0 is no effect, 100 is complete control
[28] = 500 g ai/ha, visual rating after 12 to 14 days, scale 0 to 100 (0 no effect, 100 complete control)

With `CCc1cn(C(C)(C)C)nc1C(=O)Nc1cc(C(=O)N(C)CC)ccn1` [Compound 235] the “Ducksalad plant response rating” value [1] was 90, the “Crabgrass, Large plant response rating (0 to 100 scale)” value [2, 23] was 40 and the “Plant response rating, Crabgrass, Large” value [2, 24] was 90. For the same compound, the “Crabgrass, Large plant response rating” value ([2]; 125 g ai/ha, visual rating) was 10, the “Crabgrass, Large plant response rating” value ([2]; 500 g ai/ha, visual rating) was 20 and the “Sedge, Umbrella plant response rating” value [3, 25] was 0. For the same compound, the “Sedge, Umbrella plant response rating” value [3, 26] was 50, the “Sedge, Umbrella plant response rating” value [3, 27] was 55 and the “Plant response rating, Sedge, Umbrella” value [3, 28] was 80. The “Cocklebur plant response rating (0 to 100 scale)” value [4, 23] was 0, the “Plant response rating, Cocklebur” value [4, 24] was 0 and the “Cocklebur plant response rating” value ([4]; 125 g ai/ha, visual rating) was 0. For the same compound, the “Cocklebur plant response rating” value ([4]; 500 g ai/ha, visual rating) was 30, the “Pigweed plant response rating (0 to 100 scale)” value [5, 23] was 30 and the “Plant response rating, Pigweed” value [5, 24] was 100. For the same compound, the “Pigweed plant response rating” value ([5]; 125 g ai/ha, visual rating) was 30, the “Pigweed plant response rating” value ([5]; 500 g ai/ha, visual rating) was 40 and the “Rice plant response rating” value [6, 25] was 0. The “Rice plant response rating” value [6, 26] was 0, the “Rice plant response rating” value [6, 27] was 25 and the “Plant response rating, Rice” value [6, 28] was 35. The “Barnyardgrass plant response rating” value [7, 25] was 0, the “Barnyardgrass plant response rating” value [7, 26] was 0 and the “Barnyardgrass plant response rating” value [7, 27] was 0. The “Plant response rating, Barnyardgrass” value [7, 28] was 0, the “Wheat plant response rating” value ([8]; 125 g ai/ha) was 0 and the “Wheat plant response rating” value ([8]; 500 g ai/ha) was 20. For the same compound, the “Barnyardgrass plant response rating (0 to 100 scale)” value ([9]; 125 g ai/ha) was 10, the “Plant response rating, Barnyardgrass” value ([9]; 500 g ai/ha, visual rating) was 50 and the “Oat, Wild plant response rating” value ([10]; 125 g ai/ha) was 10. For the same compound, the “Oat, Wild plant response rating” value ([10]; 500 g ai/ha) was 20, the “Foxtail, Giant plant response rating (0 to 100 scale)” value [11, 23] was 0 and the “Plant response rating, Foxtail, Giant” value [11, 24] was 50. The “Foxtail, Giant plant response rating” value ([11]; 125 g ai/ha, visual rating) was 10, the “Foxtail, Giant plant response rating” value ([11]; 500 g ai/ha, visual rating) was 30 and the “Rice plant response rating” value [12] was 40. The “Surinam Grass plant response rating (0 to 100 scale)” value [13, 23] was 10, the “Plant response rating, Surinam Grass” value [13, 24] was 60 and the “Surinam Grass plant response rating” value ([13]; 125 g ai/ha, visual rating) was 10. For the same compound, the “Surinam Grass plant response rating” value ([13]; 500 g ai/ha, visual rating) was 10, the “Velvetleaf plant response rating (0 to 100 scale)” value [14, 23] was 10 and the “Plant response rating, Velvetleaf” value [14, 24] was 30. The “Velvetleaf plant response rating” value ([14]; 125 g ai/ha, visual rating) was 20, the “Velvetleaf plant response rating” value ([14]; 500 g ai/ha, visual rating) was 30 and the “Sedge, Umbrella plant response rating” value [15] was 80. The “Ducksalad plant response rating” value [16, 25] was 0, the “Ducksalad plant response rating” value [16, 26] was 0 and the “Ducksalad plant response rating” value [16, 27] was 0. The “Plant response rating, Ducksalad” value [16, 28] was 75, the “Corn plant response rating (0 to 100 scale)” value [17, 23] was 0 and the “Plant response rating, Corn” value [17, 24] was 20. For the same compound, the “Corn plant response rating” value ([17]; 125 g ai/ha, visual rating) was 20, the “Corn plant response rating” value ([17]; 500 g ai/ha, visual rating) was 40 and the “Morningglory plant response rating (0 to 100 scale)” value [18, 23] was 10. The “Plant response rating, Morningglory” value [18, 24] was 10, the “Morningglory plant response rating” value ([18]; postemergence, 500 g ai/ha, visual rating, scale 0 (no effect) to 100 (complete control)) was 70 and the “Rice plant response rating (0 to 100 scale)” value ([19]; 125 g ai/ha) was 0. The “Plant response rating, Rice” value ([19]; 500 g ai/ha, visual rating) was 20, the “Lambsquarters plant response rating (0 to 100 scale)” value [20, 23] was 50 and the “Plant response rating, Lambsquarters” value [20, 24] was 90. The “Lambsquarters plant response rating” value ([20]; 125 g ai/ha, visual rating) was 40, the “Lambsquarters plant response rating” value ([20]; 500 g ai/ha, visual rating) was 50 and the “Blackgrass plant response rating” value ([21]; 125 g ai/ha) was 0. For the same compound, the “Blackgrass plant response rating” value ([21]; 500 g ai/ha) was 20 and the “Barnyardgrass plant response rating” value [22] was 40.
